For 72 molecules, EC50, IC50 and outcome results are on record in PubChem BioAssay AID179 (DTP/NCI, 2004).

For this assay, the system named is CEM cells HIV-1 protection, formazan growth assay. As to the kind of experiment: NCI AIDS Antiviral Assay. To be noted: for IC50: measured here: growth of uninfected CEM cells. The method in brief: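 CEM (human) cells, HIV-1 infected vs uninfected, 5-point dosing, formazan growth read-out. Retest threshold 50% protection.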

“And” between values parts separate entries of the source, which are not always exact repeats. Equal values may be shown once. The source made the active and inactive calls.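 Rule for the calls: active = compounds giving half or more protection of infected cells from virus-caused growth loss, again on retest; inactive = the rest.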

For the molecule `O=c1c(O)c(-c2ccc(O)c(O)c2)oc2cc(O)ccc12`, the EC50 was above 550 µM; the IC50 was 55 µM and 25.7 µM.

As for `Cc1cc2c(cc1Cl)SC(NNc1ccc([N+](=O)[O-])cc1)=NS2(=O)=O`, the outcome was inactive.

With `O=C(CCCC[n+]1ccccc1)Sc1ccccc1C(=O)Nc1ccc(S(=O)(=O)c2ccc([N+](=O)[O-])cc2)cc1`, the EC50 is 7.59 µM and the concentration for half-maximal inhibition (IC50) amounted to 138 µM.

As to `COc1ccc(C2=C(c3ccccc3)C(=O)C(c3ccccc3)=C2c2ccccc2)cc1`, the outcome was inactive.

For the molecule `COC(=O)C1C(OC(=O)C(Cl)(c2ccccc2)c2ccccc2)CC2CCC1N2C` (stereo not given), the EC50 was above 200 µM and the IC50 was above 200 µM.

Regarding `Cc1c(C)c(C)c2c(c1C)CC2=O`, the EC50 is above 77.6 µM and the IC50 is above 77.6 µM.

For `O=C(CC1(O)C(=O)Nc2c(Cl)ccc(Cl)c21)c1ccco1` (stereo not given), the EC50 was above 398 µM and the half-inhibitory concentration (IC50) amounted to 77.6 µM.

On to `O=C1NC(N2CCCC(CO)C2)=N/C1=C\c1ccc(O)cc1` (stereo not given), for which the EC50 is above 200 µM and the IC50 amounted to 115 µM.

Take `Cc1cc(N(CCC#N)CCC#N)ccc1CC1N=C(c2ccccc2)OC1=O` (stereo not given): the EC50 is above 93.3 µM and the IC50 is above 93.3 µM.

Take `O=C(O)C(=O)Cc1ccc(O)cc1`: the EC50 was above 200 µM and the IC50 was above 200 µM.

With `O=c1c2c(F)c(F)c(F)c(F)c2sc2nccn12`, the EC50 is above 200 µM and the IC50 was 3.89 µM.

Consider `CCN(CC(COc1ccc2c(c1)[n+]([O-])nc(N)[n+]2[O-])OC(C)=O)C(C)=O` (stereo not given), for which the EC50 was above 200 µM and the IC50 stood at 14.8 µM.

For the molecule `NC(=O)c1cc2ccc(O)c(O)c2cn1`, the EC50 is above 209 µM and the IC50 worked out at 2.95 µM.

On to `Nc1ccc2nc(Nc3ccc(Cl)c(Cl)c3)cnc2c1`, for which the EC50 was above 23.4 µM and the IC50 is above 23.4 µM.

Consider `Cc1c2c(c(C)n1-c1ccccc1)C(=O)N(CCCCN1CCN(c3ccccc3)CC1)C2=O`, for which the EC50 was above 200 µM and the IC50 worked out at 8.91 µM.

For `CCC1=C(CC2NCCc3ccccc32)CC2c3cc(OC)c(OC)cc3CCN2C1` (stereo not given), the result was inactive.

Take `CC[N+]1(C)CCC(O)(/C=C/c2ccc(Cl)c(Cl)c2)C(C(=O)/C=C/c2ccc(Cl)c(Cl)c2)C1` (stereo not given): the EC50 is above 200 µM and the IC50 stood at 3.8 µM.

On to `COC(=O)C1=CO[C@@H](C)[C@H]2CN3CC[C@]4(C(=O)Nc5ccccc54)[C@@H]3C[C@H]12`, for which the EC50 is above 200 µM and the IC50 was above 200 µM.

Turning to `O=C1C(Cl)=C(c2ccc([N+](=O)[O-])cc2)C(=O)c2c(O)cccc21`, the EC50 is above 79.4 µM and the IC50 was determined as 1.12 µM.

Regarding `Cc1cc2nnc(-c3cccc([N+](=O)[O-])c3)n2c2nnnn12`, the EC50 was above 200 µM and the IC50 was above 200 µM.

For `COC(=O)C1=CC(O)CCC1c1ccc(OC)cc1` (stereo not given), the EC50 is above 363 µM and the IC50 was above 363 µM.

On to `COC(=O)/C=C1\C(=O)N(C(C)=O)c2ccccc21`, for which the EC50 was above 200 µM and the IC50 stood at 3.31 µM.

Consider `COc1ccc(-n2c(N)c(C#N)c(C#N)c2-c2ccco2)cc1`, for which the EC50 was above 200 µM and the IC50 is above 200 µM.

Take `Cc1cc(-c2ccccc2)c2ccc3c(-c4ccccc4)cc(C)nc3c2n1.Cc1cc(-c2ccccc2)c2ccc3c(-c4ccccc4)cc(C)nc3c2n1.O=C1OC(C(O)C[O-])C(O)=C1O.[Cu+]`: the EC50 is above 25.1 µM and the half-maximal inhibitory concentration (IC50) was determined as 0.708 µM.

For the molecule `O=C1CCCC2=C1CC1=C(CCCC1=O)N2c1ccc(Cl)cc1`, the EC50 is above 200 µM and the 50% inhibitory concentration (IC50) amounted to 105 µM.

Take `CN(C)CCNc1ccc([N+](=O)[O-])c2nc3ccccc3c(N)c12`: the EC50 was above 200 µM and the IC50 came out at 1.95 µM.

As to `Cc1nn(C(=O)c2ccc(Cl)cc2)c2c1C(c1ccc(O)cc1)SC(N)=N2` (stereo not given), the EC50 was above 200 µM and the IC50 is above 200 µM.

With `COC(=O)C1=C(C(=O)OC)C2C(C)=CC(C)=CN2C(C#N)=C(SC)S1` (stereo not given), the EC50 is above 13.8 µM and the IC50 is above 13.8 µM.

`C=CC[C@@]1(C#N)C[C@H](C[C@]2(C#N)C[C@H](CCl)OC(C)(C)O2)OC(C)(C)O1`: the EC50 is above 200 µM and the IC50 amounted to 107 µM.

Turning to `CC(/C=C/NNC1=NC(c2ccccc2)C(c2ccccc2)=NN1)Sc1ccccc1N` (stereo not given), the EC50 was above 81.3 µM and the IC50 was determined as 1.45 µM.

With `CC1OC(CC(=O)O)CC2=C1C(=O)c1c(O)cccc1C2=O` (stereo not given), the EC50 is above 120 µM and the half-maximal inhibitory concentration (IC50) came out at 0.0447 µM.

In the case of `N#Cc1ccc2oc3ccc(C#N)cc3c(=O)c2c1`, the result was inactive.

As for `CCOC(=O)C1=C(C)NC(C)=C(C(=O)OCC)C1c1cccc([N+](=O)[O-])c1`, the outcome was inactive.

As to `COc1ccc(/C=N/NS(=O)(=O)c2ccccc2)cc1`, the outcome was inactive.

On to `CC(C)N1CN(C(C(=O)N[C@@H]2C(=O)N3C2SC(C)(C)C3C(=O)O)c2ccc(O)cc2)CSC1=S` (stereo not given in full), for which the EC50 was above 479 µM and the IC50 was 79.4 µM.

`COc1ccc(/C=C(\C#N)c2ccc([N+](=O)[O-])cc2)cc1OC`: the EC50 was 102 µM and the IC50 was found to be 759 µM.

In the case of `NC1CC(=O)c2c(I)sc(I)c21` (stereo not given), the EC50 was above 200 µM and the IC50 was 4.47 µM.

Take `O=C1c2ccccc2-c2nc(-c3ccccc3)cc3c2c1nc1ccccc13`: the EC50 is above 200 µM and the half-maximal inhibitory concentration (IC50) came out at 30.2 µM.

With `O=C1N(Cl)C2C(N1Cl)N(Cl)C(=O)N2Cl` (stereo not given), the EC50 was above 200 µM and the IC50 was above 200 µM.

Consider `O=C(OOC(=O)c1ccccc1)c1ccccc1`, for which the EC50 was above 200 µM and the IC50 is above 200 µM.

Consider `CCN1C[C@]2(C)CC[C@H](O)C34C1C(C[C@@H]32)[C@@]1(O)CC[C@H]2C[C@@H]4[C@@H]1[C@H]2O`, for which the result was inactive.

As to `S=C(NCCc1ccccn1)c1nc[nH]c1C(=S)NCCc1ccccn1`, the EC50 was above 200 µM and the IC50 amounted to 19.1 µM.

Consider `CN=c1nc2sc3c(c2c(NC(=S)NC)s1)CCCC3`, for which the EC50 turned out to be 77.6 µM and the IC50 was above 200 µM.

In the case of `CO/C(=N\N=C(/C)C(F)(F)F)c1ccncc1`, the EC50 is above 200 µM and the IC50 is above 200 µM.

As to `O=[N+]([O-])c1ccc(C2=NOC(c3ccccc3F)N2C23CC4CC(CC(C4)C2)C3)cc1` (stereo not given), the EC50 was 195 µM and the IC50 was above 200 µM.

With `S=C(SSC(=S)N1CCCCC1)N1CCCCC1`, the EC50 is above 200 µM and the concentration for half-maximal inhibition (IC50) worked out at 29.5 µM.

On to `S=C(Nc1c2c(nc3ccccc13)CCCC2)Nc1c2c(nc3ccccc13)CCCC2`, for which the EC50 is above 200 µM and the IC50 is above 200 µM.

As for `C/C=C/C#CC#CC(O)C(O)/C=C/CCCO` (stereo not given), the EC50 was above 77.6 µM and the IC50 was above 77.6 µM.

For the molecule `NC(=O)C(=CNC(=S)N=Nc1c(O)[nH]c2ccccc12)C(N)=O`, the EC50 is above 200 µM and the IC50 came to 166 µM.

Consider `N#C[C@](CO)(NC(=O)OCc1ccccc1)C(F)F`, for which the EC50 was above 200 µM and the IC50 is above 200 µM.

For the molecule `C/C=C/C(=O)[O-].C/C=C/C(=O)[O-].N.N.N.N.[Co+3].[O-][Cl+3]([O-])([O-])[O-]`, the outcome was inactive.

Turning to `CN1CCCC(CC2c3ccccc3Sc3ccccc32)C1` (stereo not given), the EC50 is above 200 µM and the IC50 turned out to be 12.3 µM.

Turning to `COc1ccc(C(=O)Nc2cc(Cc3cc(NC(=O)c4ccc(OC)c(C(=O)O)c4)c(OC)c(C(=O)O)c3)cc(C(=O)O)c2OC)cc1C(=O)O`, the EC50 is above 50.1 µM and the IC50 was above 50.1 µM.

In the case of `O=C(CI)Nc1ccc2oc(=O)c(C(=O)O)cc2c1`, the EC50 was above 214 µM and the IC50 came out at 23.4 µM.

As for `Cc1c(C2(c3cc(C(C)C)c(O)c(Br)c3C)OS(=O)(=O)c3ccccc32)cc(C(C)C)c(O)c1Br`, the EC50 is above 288 µM and the IC50 was 97.7 µM.

Consider `COC(=O)C1C=CCC2CCCCC21N1CCCC1` (stereo not given), for which the outcome was inactive.

Regarding `Cc1ccc(C)n1-c1ccccc1C1C=CN(C(=O)OC(C)(C)C)C=C1`, the EC50 was above 200 µM and the IC50 amounted to 30.2 µM.

As to `Cc1cc(C[C@H]2O[C@@H]3OC(C)(C)O[C@@H]3[C@H]3OC(C)(C)O[C@H]32)c2ccccc2n1`, the EC50 was above 200 µM and the IC50 was found to be 64.6 µM.

For the molecule `CCOC(=O)C(C)(C)C(OP(=S)(OCC)OCC)=C(C)C`, the EC50 was above 3.09 µM and the IC50 is above 3.09 µM.

For the molecule `FC(F)(F)c1ccc2nc(NCc3ccccc3)c(-c3ccccc3)nc2c1`, the EC50 is above 19.1 µM and the IC50 is above 19.1 µM.

On to `c1ccc([P+](Cc2csnn2)(c2ccccc2)c2ccccc2)cc1`, for which the EC50 was above 331 µM and the IC50 worked out at 174 µM.

Take `NC(=S)N/C=C\c1nc2ccccc2[nH]c1=O`: the EC50 is above 200 µM and the IC50 was above 200 µM.

Take `O=C(/C=N/O)Nc1cccc(Cl)c1I`: the EC50 was above 110 µM and the IC50 amounted to 93.3 µM.

Regarding `Oc1cc(O)c2c(c1)OC(c1ccc(O)c(O)c1)C(OC1(c3cc(O)c(O)c(O)c3)Oc3cc(O)cc(O)c3C(O)C1O)C2` (stereo not given), the EC50 is above 200 µM and the IC50 is 11.5 µM.

Consider `CC(C)(C)C(=O)OCC1CCC[N+]2(C)CCCCC12` (stereo not given), for which the EC50 is above 200 µM and the IC50 is above 200 µM.

As to `C[N+]1(C)CCC(OC(=O)C(O)(c2ccccc2)C2CCCC2)C1` (stereo not given), the EC50 is above 200 µM and the IC50 was above 200 µM.

Regarding `O=C(O)C(=Cc1ccc(-c2ccccc2)cc1)C(=O)O`, the EC50 is above 251 µM and the IC50 turned out to be 15.5 µM.

Take `C/C(=N/N)c1ccc2[nH]c3c(C)cc([N+](=O)[O-])c(C)c3c2c1`: the EC50 is above 24.5 µM and the IC50 amounted to 4.9 µM.

In the case of `NCCSc1nc2ccccc2c(=O)n1-c1ccccc1`, the EC50 is above 200 µM and the IC50 was determined as 30.2 µM.

Regarding `CC(=O)O[C@H]1CCCC[C@H]1c1ccccc1`, the EC50 is above 309 µM and the IC50 is above 309 µM.

For the molecule `COP(=O)(OC)C(Cc1c[nH]c2ccccc12)NC(=O)OCc1ccccc1` (stereo not given), the EC50 is above 200 µM and the IC50 is above 200 µM.

In the case of `N/C(CCCC/C(N)=N/O)=N\O`, the EC50 was above 200 µM and the IC50 was above 200 µM.
